1 substance from US9481885B2, “Methods and compositions related to miR-21 and miR-29a, exosome inhibition, and cancer metastasis” (Ohio State Innovation Foundation, priority 2011, dated 2016) can be followed below.

For this series, the system named is peritoneal macrophages. Nature of the series: ELISA for TNF-α and IL-6 on peritoneal macrophages from WT and TLR7−/− mice. It is filed as cell-based, mouse. Conditions: Dotap formulations of miRNA. On the procedure:
Experiments were performed to determine whether the miRNA-TLR interaction is functional, and assessed whether the miRNAs of interest induce the secretion of cytokines such as TNF-α and IL-6, whose production is increased by TLR activation. We isolated peritoneal macrophages from WT and TLR7^−/− B6 mice. Cells were treated with Dotap alone or with Dotap formulations of miR-16, -21, -29a, and -147, and an ELISA for TNF-α and IL-6 was performed. In the functional assays, included also were miR-147 and -574-5p, because they have a mature viral-derived sequence that induces cytokine production through the activation of TLR8 and TLR7, similar to that of RNA33 (FIG. 14A). […] We also treated spleen cells from WT and TLR7^−/− mice with the same miRNAs and assessed expression of CD69, an early activation marker of cells which has a role in inflammation and proliferation and which also is activated by TLR3. Polyinosinic:polycytidylic acid [poly (I:C)], a known agonist of TLR3, served as positive control.
For all experiments, cells were treated with 15 μg of HPLC-purified synthetic miRNAs (Integrated DNA Technologies) complexed with Dotap Liposomal Transfection Reagent (Roche) as previously described.
Macrophages derived from the peritoneal cavity were isolated from WT and TLR7^−/− age- and sex-matched mice.
PBMC were isolated from heparinized blood of healthy donors by Ficoll-Paque (Pharmacia) centrifugation (500×g) following the manufacturer's instructions and were plated immediately for stimulation. Human PBMCs or murine peritoneal macrophages (300,000 cells) were stimulated with synthetic miRNAs for 24 h; then ELISAs for TNF-α and IL-6 were performed on the conditioned media using Multi-Analyte ELISArray Kits (SABiosciences) following the manufacturer's instructions.

[1] abbreviates: peritoneal macrophages of TLR7−/− B6 mice.
Where [2] appears, read: peritoneal macrophages of WT B6 mice.

On to “miR-147: synthetic mature miRNA (SEQ ID NO: 3), sequence similar to RNA33, Dotap formulation (GUGUGUGGAAAUGCUUCUGC; DOTAP formulation, further chemistry not given here)”, for which, under setting [1], the IL-6 production result is “not” and the TNF-α production result is on record as “not”. Further, under setting [2], the IL-6 production entry is on record as “increased” and the TNF-α production entry is given as “increased”.
